The values below come from US20050004079A1, “Pharmaceutical compositions for intranasal administration of [2-(8,9-dioxo-2,6-diazabicyclo[5.2.0]non-1(7)-en-2-yl)alkyl] phosphonic acid and derivatives and methods of use thereof” (Wyeth, priority 2003, published 2005).

SMILES strings stand for the structures. Where two headings read alike, the source gives them in different places.

Data set [1] deals with Prostaglandin E2-induced thermal hypersensitivity. Kind of data set: In vivo efficacy in rats: Prostaglandin E2-induced thermal hypersensitivity (warm-water tail withdrawal). Further details: species or system Spraque-Dawley rats. The conditions noted are these: for % MPE (reversal of PGE2-induced thermal hypersensitivity): rat, 30 min before PGE2. As to the method:
Subjects: Individually housed Spraque-Dawley rats had free access to rat chow and water. A 12-h light/12-h dark cycle was in effect (lights on from 6:00 am to 6:00 pm). Animal maintenance and research were conducted in accordance with the guidelines provided by the National Institutes of Health Committee on Laboratory Animal Resources. These subjects were used in the tests below.
Procedure: The terminal 10 cm of the tail was placed into a thermos bottle containing water warmed to 38, 42, 46, 50 or 54° C. The latency in seconds for the animal to remove the tail from the water was used as a measure of nociception.
Following the assessment of baseline thermal sensitivity, thermal hypersensitivity was produced by a 50 μL injection of 0.1 mg prostaglandin E2 (PGE2) into the terminal 1 cm of the tail. Temperature-effect curves were generated before (baseline) and after (15, 30, 60, 90 and 120 min) the PGE2 injection.
The ability of compounds to reverse PGE2-induced thermal hypersensitivity was assessed using a single dose time-course procedure. Under this procedure, a single dose of the compound to be tested was administered intraperitoneally (IP), orally (PO) or intranasally (IN) 30 min before the injection of PGE2. […] sensitivity was assessed 30 min after PGE2 injection. For the IP and PO administration, compound was administered in a volume of 1 ml/kg with the dose administered calculated as mg/kg. For IN administration, rats were lightly anesthetized with 3.5% halothane in O2 and compound or vehicle was administered in a volume of 25 μL solution dropped into each nostril with the dose administered in absolute mg.
Data Analysis: The temperature that produced a half-maximal increase in the tail-withdrawal latency (i.e., T10) was calculated from each temperature-effect curve. The T10 was determined by interpolation from a line drawn between the point above and the point below 10 sec on the temperature-effect curve. For these studies, thermal hypersensitivity was defined as a leftward shift in the temperature-effect curve and a decrease in the T10 value. Reversal of thermal hypersensitivity was defined as a return to baseline of the temperature-effect curve and the T10 value and was calculated according to the following equation: [formula] in which T10^drug+PGE2 is the T10 after a drug in combination with PGE2, T10^PGE2 is the T10 after PGE2 alone, and T10^baseline is the T10 under control conditions. A % MPE value of 100 indicates a complete return to the baseline thermal sensitivity observed without the PGE2 injection.

The conditions of data set [2]: monkey, in vivo, iv, 1.1 mg/kg.
A further data set is described as follows: in vivo. To be noted: monkey, po.

With `O=c1c2c(c1=O)N(CCP(=O)(O)O)CCCN2` [Compound A, [2-(8,9-dioxo-2,6-diazabicyclo[5.2.0]non-1(7)-en-2-yl)ethyl]phosphonic acid], in data set [1] (rat PGE2-induced thermal hypersensitivity model, intranasal and intraperitoneal found similar), the “in vivo efficacy of intranasal and intraperitoneal administration compared with oral administration” value is reported as “ten folds higher”. In addition, the “% MPE (reversal of PGE2-induced thermal hypersensitivity)” value in data set [1] (IP, 1 mg/kg) is reported as −7%; in data set [1] (IP, 3 mg/kg), 66%; in data set [1] (IP, 10 mg/kg, 10 mg/kg), 79%; in data set [1] (PO, 10 mg/kg), 5%; in data set [1] (PO, 30 mg/kg), 23%; in data set [1] (PO, 100 mg/kg, 100 mg/kg) it was 87%. In addition, the AUC in data set [2] came to 1.67 ughr/ml; in “in vivo” (20 mg/kg) it was 1740 ng·h/mL. Besides, the highest concentration (Cmax) in the data set “in vivo” (20 mg/kg) turned out to be 147 ng/mL. Further, the bioavailability in “in vivo” (100 mg/kg) is about 2.5%.

One may read the Cmax as the maximum level reached in the sampled fluid or tissue. The term bioavailability denotes the share of a dose that reaches the circulation, judged against a reference dose that is usually intravenous. Lower therefore signals poor availability.
